Test results: the NIST ThermoML archive (doi:10.1007/s10765-014-1759-1)
± gives the expanded uncertainty stated by the source.

Details: 101.33 kPa, Liquid; for viscosity: Capillary tube (Ostwald / Ubbelohde) method; for mass density: Vibrating tube method

| SMILES | viscosity (293.15 K) [mPa·s] | mass density (293.15 K) [kg/m3] | viscosity (298.15 K) [mPa·s] | mass density (298.15 K) [kg/m3] |
| --- | --- | --- | --- | --- |
| C1CCCCC1 [cyclohexane] | 0.978 ± 0.0084 | 778.7 ± 0.3 | 0.8931 ± 0.0079 | 773.9 ± 0.3 |
| CCCCCCCC [octane] | 0.5433 ± 0.0059 | 702.5 ± 0.6 | 0.5108 ± 0.0057 | 698.5 ± 0.6 |
| Cc1ccccc1 [toluene] | 0.5891 ± 0.0061 | 866.7 ± 0.6 | 0.5528 ± 0.006 | 862 ± 0.6 |

The next lines start with the values.

| viscosity (293.15 K) [mPa·s] | mass density (293.15 K) [kg/m3] | viscosity (298.15 K) [mPa·s] | mass density (298.15 K) [kg/m3] | SMILES |
| --- | --- | --- | --- | --- |
| 0.6735 ± 0.0066 | 867.1 ± 0.6 | 0.6318 ± 0.0064 | 862.7 ± 0.6 | CCc1ccccc1 [ethylbenzene] |
| 0.412 ± 0.0053 | 684 ± 0.6 | 0.3895 ± 0.0052 | 679.7 ± 0.6 | CCCCCCC [heptane] |
